These results are taken from US20170157051A1, “SOLUBILITY ENHANCEMENT FOR HYDROPHOBIC DRUGS” (Freund Pharmatec Ltd., priority 2013, published 2017).

The conditions of data set [1]: cited from earlier work.
Data set [2] can be described thus: Dissolution profile in biorelevant media (FaSSIF / FaSSGF), paddle apparatus. It counts as physicochemical. As to conditions: FaSSIF (fenofibrate, nifedipine, nimodipine, nabumetone) or FaSSGF (ibuprofen, gemfibrozil); 900 ml, 37° C., 75 rpm. How it is done:
Dissolution profile: The drug release profiles of the above formulations and the reference products (TRICOR ® 48 mg Fenofibrated tablets and Buplex® 200 mg Ibuprofen tablets) was tested in biorelevant dissolution media; using Fasted State Simulated Intestinal Fluid (FaSSIF) for Tricor® and Fasted State Simulated Gastric Fluid (FaSSGF) for Buplex®. USP […] (Paddle) was used.
Media temperature: 37° C.;
Paddle rotation speed: 75 rpm;
The method used to measure the dissolution rate is as described under ‘dissolution profile’ in the previous example. […] All other conditions remained the same.

Read-outs that look alike come from different tables or passages of the source.

For the molecule `Cc1ccc(C)c(OCCCC(C)(C)C(=O)O)c1` [Gemfibrozil], the solubility in water in data set [1] (at 25° C.) is under 1000 µg/mL.
With `CC(C)Cc1ccc(C(C)C(=O)O)cc1` (stereo not shown) [Ibuprofen, iso-butyl-propanoic-phenolic acid], the “% drug dissolved / rate and extent of dissolution versus marketed product” value in data set [2] was 1:2.7 ratio of Maisine:Kolliphor showed higher dissolution than a 1:1.8 ratio. Besides, the solubility in water result in data set [1] is reported as “Less than 1 mg/ml”.
Regarding `COc1ccc2cc(CCC(C)=O)ccc2c1` [Nabumetone], the “solubility in water (in words)” value in data set [1] is “practically insoluble in water”.
